In patent US20030003114A1, “Enzyme-based anti-cancer compositions and methods” (priority 2001, published 2003):

Experiments:
[1] = tested on: 24 JK murine sarcoma cells; test: Syngeneic tumor model, 24 JK murine sarcoma in C57BL/6 mice; parameters: anti-tumor effectiveness: dose or concentration left out as unconfirmed
Experimental: In the case where a hexosaminidase is tested for anti-tumor activity on murine tumor cells or tissues, a syngeneic tumor model is used. In this model, tumor cells or tissues are implanted in C57BL/6 mice. As in the SCID mouse model described above, the implanted tumors are allowed to grow to a size of approximately 50 to 100 mm^3 before various amounts of the hexosaminidase are administered to the animal, by any of the means described above. The decrease in tumor size or, preferably, elimination of the tumor from the mouse, is subsequently observed.
In both the SCID and C57BL/6 models described above, the anti-tumor activity of a hexosaminidase is compared to the anti-tumor activity of a known anti-tumor agent. For example, mice containing tumors are treated with doxorubicin. A suitable dose of doxorubicin is 5 mg per kg of body weight of the mice.
A syngeneic tumor model, C57BL/6 mice carrying implanted 24 JK murine sarcoma cells, was used in these studies. The cells were injected subcutaneously into the mouse flank. Five days later, 5 units of chitinase was injected intraperitoneally (IP) into the mouse. Into another mouse was injected 5 mg doxorubicin per kilogram of mouse weight IP on days 5, 7 and 9. Into a third mouse was injected saline on day 5 (i.e., negative control).

[2] = tested on: spleen cells from a normal mouse; test: MTT dye reduction viability assay, normal cells; assay type: cell-based; conditions: concentrations up to 1.0 units per ml of culture medium, 3 days, FIG. 1
From the text: Different concentrations of the hexosaminidases are used. […] One method is the MTT assay.

lung cancer cells = test: Cultured tumor cells treated with chitinase, cellular damage (electron micrographs); assay type: cell-based, human; conditions: within hours of treatment, ultimately leading to cell death
melanoma cells = test: as above; assay type: cell-based, human; conditions: within hours of treatment, ultimately leading to cell death
[3] = tested on: prostate cancer LNCaP cells; test: Cultured tumor cells treated with chitinase, cellular damage; assay type: cell-based, human; conditions: within hours of treatment, ultimately leading to cell death
[4] = tested on: breast cancer MCF-7 cells; test: Cultured tumor cells treated with chitinase, cellular damage (electron micrographs); assay type: cell-based, human; conditions: within hours of treatment, ultimately leading to cell death
[5] = tested on: Moderately differentiated adenocarcinoma from human colon; test: Human colon cancer xenograft in SCID mice, tumor size; assay type: in vivo; conditions: 5 units injected into the tumor (day 1), FIG. 2
Experimental: (§1) The effect of hexosaminidases on survival of tumor cells is also tested by administering hexosaminidases to experimental animals that have various tumors. Preferably, the tumors are human tumors or cancer xenograft tissues and the experimental animal is a SCID mouse. Good results have been obtained by transplanting tumor cells or tissues subcutaneously in the animal or behind the fat pad of the mouse. After the tumor cells or tissues are transplanted into the animal, the tumors cells grow and divide. When the tumors reach a visible size (e.g., 0.5-0.8 cm^3) in the SCID mice, a hexosaminidase is dissolved in PBS and various amounts of the hexosaminidase are injected into the tumor (i.e., intratumor injection), injected intraperitoneally (IP) into the animal, or intravenously (IV) into the animal. Single or multiple injections are used. The size of the tumor is subsequently measured to determine the effect of the enzyme on tumor growth and survival. A decrease in size of the tumors is indicative of anti-tumor activity of the hexosaminidase. Preferably, administration of the hexosaminidase results in a significant size reduction of the tumor. […]
Moderately differentiated adenocarcinoma from human colon was obtained from patients as a biopsy sample and a 0.1 cm^3 piece of the biopsy was implanted into SCID mice. […] Subsequently, the size of the tumors was measured daily.

[6] = tested on: Moderately differentiated squamous cell carcinoma from human lung; test: Human lung cancer xenograft in SCID mice, tumor size; assay type: in vivo
Experimental: as §1
Moderately differentiated squamous cell carcinoma from human lung was obtained from patients as a biopsy sample and a 0.1 cm^3 piece of the biopsy was implanted into SCID mice. […] Subsequently, the size of the tumors was measured daily. […]

[7] = tested on: Poorly differentiated carcinoma from human bladder; test: Human bladder cancer xenograft in SCID mice, tumor size; assay type: in vivo; conditions: 5 units injected into the tumor (day 1)
Experimental: as §1
Poorly differentiated carcinoma from human bladder was obtained from patients as a biopsy sample and a 0.1 cm^3 piece of the biopsy was implanted into SCID mice. […] Subsequently, the size of the tumors was measured daily.

Malignant melanoma = test: Human malignant melanoma xenograft in SCID mice, tumor size; assay type: in vivo; conditions: 5 units injected into the tumor (day 1)
Experimental: as §1
Malignant melanoma was obtained from patients as a biopsy sample and a 0.1 cm^3 piece of the biopsy was implanted into SCID mice. […] Subsequently, the size of the tumors was measured daily.

fibrosarcoma = test: Human fibrosarcoma xenograft in SCID mice, tumor size; assay type: in vivo; conditions: 5 units injected into the tumor (day 1)
Experimental: as §1
A fibrosarcoma was obtained from patients as a biopsy sample and a 0.1 cm^3 piece of the biopsy was implanted into SCID mice. […] Subsequently, the size of the tumors was measured daily.

[8] = tested on: Adenocarcinoma from ovaries; test: Human ovarian cancer xenograft in SCID mice, tumor size; assay type: in vivo; conditions: 5 units injected into the tumor (day 1)
Experimental: as §1
Adenocarcinoma from ovaries was obtained from patients as a biopsy sample and a 0.1 cm^3 piece of the biopsy was implanted into SCID mice. […] Subsequently, the size of the tumors was measured daily.

[9] = tested on: Ductal carcinoma from breast; test: Human breast cancer xenograft in SCID mice, tumor size; assay type: in vivo; conditions: 5 units injected into the tumor (day 1)
Experimental: as §1
Ductal carcinoma from breast was obtained from patients as a biopsy sample and a 0.1 cm^3 piece of the biopsy was implanted into SCID mice. […] Subsequently, the size of the tumors was measured daily.

[10] = tested on: Merkel cell cancer (neuroendocrine skin cancer); test: Merkel cell cancer xenograft in SCID mice, tumor size; assay type: in vivo, human; conditions: 5 units injected into the tumor (day 1)
Experimental: as §1
Merkel cell cancer (neuroendocrine skin cancer) was obtained from patients as a biopsy sample and a 0.1 cm^3 piece of the biopsy was implanted into SCID mice. […] Subsequently, the size of the tumors was measured daily.

[11] = tested on: Moderately differentiated adenocarcinoma from prostate; test: Human prostate cancer xenograft in SCID mice, tumor size; assay type: in vivo; conditions: 5 units injected into the tumor (day 1), FIG. 2
Experimental: as §1
Moderately differentiated adenocarcinoma from prostate was obtained from patients as a biopsy sample and a 0.1 cm^3 piece of the biopsy was implanted into SCID mice. […] Subsequently, the size of the tumors was measured daily.

Large cell lymphoma = test: Human lymphoma xenograft in SCID mice, tumor size; assay type: in vivo; conditions: 5 units injected into the tumor (day 1), over a period of 7 days, FIG. 2
Experimental: as §1
Large cell lymphoma was obtained from patients as a biopsy sample and a 0.1 cm^3 piece of the biopsy was implanted into SCID mice. […] Subsequently, the size of the tumors was measured daily.

[12] = tested on: LNCaP prostate cancer cells; test: LNCaP prostate cancer cell tumors in SCID mice; assay type: in vivo, human
Experimental: The effect of hexosaminidases on survival of tumor cells is also tested by administering hexosaminidases to experimental animals that have various tumors. Preferably, the tumors are human tumors or cancer xenograft tissues and the experimental animal is a SCID mouse. Good results have been obtained by transplanting tumor cells or tissues subcutaneously in the animal or behind the fat pad of the mouse. After the tumor cells or tissues are transplanted into the animal, the tumors cells grow and divide. When the tumors reach a visible size (e.g., 0.5-0.8 cm^3) in the SCID mice, a hexosaminidase is dissolved in PBS and various amounts of the hexosaminidase are injected into the tumor (i.e., intratumor injection), injected intraperitoneally (IP) into the animal, or intravenously (IV) into the animal. Single or multiple injections are used. The size of the tumor is subsequently measured to determine the effect of the enzyme on tumor growth and survival. A decrease in size of the tumors is indicative of anti-tumor activity of the hexosaminidase. Preferably, administration of the hexosaminidase results in a significant size reduction of the tumor. More preferably, the hexosaminidase eliminates the tumor from the SCID mouse. Preferably, such animals will remain free from tumors in the future.
One million LNCaP prostate cancer cells were injected into SCID mice. After the tumors grew to a size of between 0.3-0.6 cm^3, 5 units of Streptomyces chitinase was injected intratumorally, intraperitoneally and intravenously, in separate mice. […] All untreated animals died within 3 months.

[13] = Chitinase levels in blood of mice after different routes of administration (4-mu-chitotrioside assay of plasma); assay type: in vivo; conditions: mouse
Experimental: Thirty-five mg of chitinase (Sigma C-6139) was dissolved in 1.5 ml of PBS. One-half ml of the chitinase solution was injected into each of 3 mice. One mouse was injected intraperitoneally (IP), one was injected intravenously (IV), and one mouse was injected subcutaneously (SC). A fourth mouse was injected with saline as a control. At various times after injection, 15-20 μl of blood was taken from the tail vein of each mouse and immediately mixed with a sodium-EDTA solution (pH 7.4). The cells were centrifuged from the blood and 5 μl of plasma was used in a chitinase assay. In the chitinase assay, 4-methylumbelliferyl-β-D-N, N′, N″-triacetyl-chitotriose (4-mu-chitotrioside) was used as the substrate for chitinase. The plasma sample, in 100 μl of saline, was mixed with 100 μl of 22 μM 4-mu-chitotrioside solution in 0.2 M citric acid buffer (pH 5.2) and incubated in a 37° C. water bath for 15 min. At the end of the incubation, 3.0 ml of 0.3 M glycine buffer (pH 10.6) was added to the mixture to stop the reaction. The fluorescence of the solution at 460 nm was then measured after excitation at 355 nm.

[14] = Observation of treated mice for visible signs of systemic toxicity; assay type: in vivo; conditions: general statement; high chitinase levels do not appear to cause toxicity in normal tissues
From the text: Such toxicity is compared with toxicity that is present in control animals, animals administered doxorubicin for example.

[15] = tested on: human oral carcinoma KB cells; conditions: 3 days culture at 37° C., MTT, FIG. 1
Experimental: Good results have been obtained by testing the effect of hexosaminidases on the viability of cultured normal and tumor cells is tested by culturing normal cells (e.g., spleen cells from a mouse) and tumor cells (e.g., human oral carcinoma KB cells) in vitro and then adding various concentrations of the hexosaminidase to the cells. Different concentrations of the hexosaminidases are used. At various times after addition of the hexosaminidase, the viability of the cells is determined using one of a variety of methods. One method is the MTT assay. In this assay, cells are exposed to MTT, 3-(4,5-dimethylthiazol-2-yl)2,5-diphenyltetrazolium bromide, which is taken into the cells and reduced by mitochondrial dehydrogenase to a purple formazan, a large molecule which is unable to pass through intact cell membranes, and therefore accumulates in healthy cells. The ability of cells to reduce MTT is an indication of mitochondrial integrity and activity, which is interpreted as a measure of viability.
Fifty thousand spleen cells from a normal mouse, or human oral carcinoma KB cells were cultured. […] This product was dissolved in a solvent (95% ethanol:DMSO; 1:1), added to the cells and the absorbance (540 nm) was determined. The absorbance of the formazan is linearly proportional to the number of viable cells in the culture.

[16] = 5 units intratumorally, intraperitoneally and intravenously, in separate mice

Compound: COc1cccc2c1C(=O)c1c(O)c3c(c(O)c1C2=O)C[C@@](O)(C(=O)CO)C[C@@H]3O[C@H]1C[C@H](N)[C@H](O)[C@H](C)O1 [doxorubicin, reference compound]
- anti-tumor effectiveness [1]: generally ineffective
- outcome of mice evaluated ([1]; 5 mg per kilogram IP on days 5, 7 and 9): eventually died from drug toxicity or progressive tumor growth
- course of tumor growth ([1]; 3 intraperitoneal injections of 5 mg/kg (maximum tolerated dose)): growth attenuation followed by a resumption of progressive growth

Compound: chitinase
- effect on the viability of the normal mouse spleen cells [2]: little effect
- cellular damage after chitinase treatment (lung cancer cells): significant cellular damage
- cellular damage after chitinase treatment (melanoma cells): significant cellular damage
- cellular damage after chitinase treatment [3]: significant cellular damage
- cellular damage after chitinase treatment [4]: significant cellular damage
- period over which human colon cancer was effectively eliminated from the animals [5]: 2 days
- elimination of lung tumors compared with human colon cancer of Example 2 ([6]; 5 units injected into the tumor (day 1), SCID mice): as effectively eliminated
- tumor size after chitinase treatment ([6]; 10 days after a single injection of 5 units, FIG. 3b): substantially reduced in size
- elimination of bladder tumors compared with human colon cancer of Example 2 [7]: as effectively eliminated
- elimination of melanomas compared with human colon cancer of Example 2 (Malignant melanoma): as effectively eliminated
- elimination of fibrosarcomas compared with human colon cancer of Example 2 (fibrosarcoma): as effectively eliminated
- elimination of ovarian tumors compared with human colon cancer of Example 2 [8]: as effectively eliminated
- elimination of breast tumors compared with human colon cancer of Example 2 [9]: as effectively eliminated
- elimination of Merkel cell tumors [10]: eliminated
- period over which prostate tumors were eliminated from the mouse [11]: 7 days
- change of lymphoma size (Large cell lymphoma): reduced in size
- histological staining of tumors compared to saline control tumors [12, 16]: extensive cellular damage and morphological changes
- time after injection at which tumor necrosis was visible [12, 16]: within hours
- tumor regression [12, 16]: complete tumor regression
- survival of treated animals without tumor recurrence ([12]; 5 units, all untreated animals died within 3 months): more than one year
- development of resistance of the tumors to the enzyme ([12]; additional studies): no indication of development of resistance
- tumor elimination with an additional administration of chitinase after the first ([12]; additional studies): more rapidly eliminated
- dose dependence of anti-tumor activity ([1]; additional studies, increased with increasing dosages): dose dependent
- regression of established tumors ([1]; intraperitoneal injection of 5 Units on day 5 and day 6): complete tumor regression
- day until after which detectable growth of 24 JK sarcoma tumor cells was inhibited ([1]; single IP injection of 5 units five days after cell injection, FIG. 5): > 12 days
- regression of established tumors ([1]; single intraperitoneal injection of 10 Units on day 5): complete tumor regression
- maximum blood levels relative to those found in IV injection ([13]; IP injection): less than half
- time at which maximum blood levels were reached ([13]; IP injection): 2 to 3 min
- time until which blood levels tapered off ([13]; IP injection): 40 min
- time until which maximum levels remained ([13]; IP injection): 7 to 8 min
- time at which little chitinase was left in the blood ([13]; IV injection): 20 min
- levels of chitinase in the blood immediately after injection ([13]; IV injection, within 1 min.): very high levels
- maximum blood levels relative to blood levels found after IP injection ([13]; SC injection): a third
- time at which maximum blood levels were reached ([13]; SC injection): 2 to 3 min
- time until which blood levels tapered off ([13]; SC injection): 40 min
- systemic toxicity [14]: without significant systemic toxicity
- concentrations at which chitinase efficiently kills the tumor cells [15]: 0.025 to 0.05 units of chitinase per ml of culture medium
